Assay results from US11697646B2, “Triazole N-linked carbamoyl cyclohexyl acids as LPA antagonists” (BRISTOL-MYERS SQUIBB COMPANY, priority 2017, dated 2023).

Tests used:
[1] = system: mouse epithelial renal cell line, MCT; details: LPA treatment of MCT cells, co-treatment; cited from earlier work
[2] = system: pancreatic cancer cell lines; details: in response to LPA and peritoneal fluid (ascites) from pancreatic cancer patients; cited from earlier work
[3] = system: human foetal lung fibroblasts; details: induced by BAL obtained from IPF patients; cited from earlier work
[4] = system: highly peritoneal metastatic pancreatic cancer cell line; details: LPA-induced and ascites-induced; cited from earlier work
UUO mice = details: cited from earlier work
IPF patients = details: 26-week clinical trial in IPF patients; cited from earlier work
human LPA1 = molecular target: T1, human LPA1 (Homo sapiens, UniProt Q92633); experiment: LPA1 functional antagonist assay (calcium flux); format: cell-based; details: CHO cells overexpressing human LPA1; calcium flux induced by 10 nM LPA; read-out: hLPA1 IC50
T1 construct: expressed in transfected cells; host or cells: Chinese hamster ovary (CHO) cells
Experimental: The effectiveness of compounds of the present invention as LPA1 inhibitors can be determined in an LPA1 functional antagonist assay as follows:
The cells were then equilibrated to room temperature for 30 minutes before the assay. […] IC50 values were determined by fitting data to a 4-parameter logistic equation (GraphPad Prism, San Diego Calif.).

plasma histamine = experiment: LPA challenge with plasma histamine evaluation (acute in vivo histamine assay); details: 1 mg/kg dose
Experimental: LPA Challenge with Plasma Histamine Evaluation.
Compound is dosed orally p.o. 2 hours to CD-1 female mice prior to the LPA challenge. The mice are then dosed via tail vein (IV) with 0.15 mL of LPA in 0.1% BSA/PBS (2 μg/μL). Exactly 2 minutes following the LPA challenge, the mice are euthanized by decapitation and the trunk blood is collected. These samples are collectively centrifuged and individual 75 μL samples are frozen at −20° C. until the time of the histamine assay.
The plasma histamine analysis was run by standard EIA (Enzyme Immunoassay) methods. Plasma samples were thawed and diluted 1:30 in 0.1% BSA in PBS. The EIA protocol for histamine analysis as outlined by the manufacturer was followed (Histamine EIA, Oxford Biomedical Research, EA #31).
The LPA used in the assay is formulated as follows: LPA (1-oleoyl-2-hydroxy-sn-glycero-3-phosphate (sodium salt), 857130P, Avanti Polar Lipids) is prepared in 0.1% BSA/PBS for total concentration of 2 μg/μL, 13 mg of LPA is weighed and 6.5 mL 0.1% BSA added, vortexed and sonicated for −1 hour until a clear solution is achieved.

nerve-injured mice = details: pretreatment; cited from earlier work

T1 sequence (Q92633 whole entry): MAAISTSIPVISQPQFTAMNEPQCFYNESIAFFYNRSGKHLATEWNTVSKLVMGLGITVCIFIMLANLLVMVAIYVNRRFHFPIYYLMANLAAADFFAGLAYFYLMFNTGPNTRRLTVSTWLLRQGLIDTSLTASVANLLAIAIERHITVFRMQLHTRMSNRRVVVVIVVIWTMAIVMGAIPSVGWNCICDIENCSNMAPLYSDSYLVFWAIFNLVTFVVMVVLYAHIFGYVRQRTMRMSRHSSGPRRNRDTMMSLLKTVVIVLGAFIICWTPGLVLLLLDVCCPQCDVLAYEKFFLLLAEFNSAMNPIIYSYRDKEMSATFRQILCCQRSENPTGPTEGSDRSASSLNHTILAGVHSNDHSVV

Cc1noc(-c2ccc(CSCCC(=O)O)cc2)c1NC(=O)OC(C)c1ccccc1Cl (stereo not drawn) [Ki16425]
induction of CTGF expression [1]: almost completely suppressed
in vitro migration [2]: effectively blocked
chemotaxis of human foetal lung fibroblasts [3]: blocked
invasion activity [4]: blocked
development of renal fibrosis (UUO mice): closely resembled the profile of LPA1 (−/−) mice

Cc1noc(-c2ccc(-c3ccc(C4(C(=O)O)CC4)cc3)cc2)c1NC(=O)O[C@H](C)c1ccccc1 [BMS-986020]
rate of FVC (forced vital capacity) decline (IPF patients): significantly reduce

Cc1nc(-c2nnn(C)c2CNC(=O)OCc2ccccc2)ccc1O[C@H]1CCC[C@H](C(=O)O)C1 [Example 34, (1S,3S)-3-((6-(5-((((benzyloxy)carbonyl)amino)methyl)-1-methyl-1H-1,2,3-triazol-4-yl)-2-methylpyridin-3-yl)oxy)cyclohexane-1-carboxylic acid]
IC50 (human LPA1): 9 nM
acute in vivo histamine assay in CD-1 mice: % histamine (plasma histamine): −96%

C[C@@H](N)[C@H]1CC[C@H](C(=O)Nc2ccncc2)CC1 [Example Y-27632]
allodynia and hyperalgesia (nerve-injured mice): completely abolished
